Source: patent publication US20220175682A1, “Siremadlin Succinate” (Novartis AG, priority 2019, published 2022)

Assays:
Assay type in all cases: physicochemical
[1] = Particle size distribution by laser light diffraction (LLD); conditions: laser light diffraction, pin-milled HDM201-BBA batches
Text: Values are given in micrometer, measurements done by laser light diffraction (LLD).

[2] = FT4 powder rheometer powder characterization (8-parameter model); set-up: MPS-15: unit not given here; conditions: for SI / sBFE / SI (Stability Index): FT4, Group 1; for SI / sBFE / CBD-15 / FF-15 / MPS-15 / CPS / WFA: HDM201-BBA batches; for CBD-15 / FF-15 / MPS-15: FT4, Group 2; for CPS: FT4, Group 3; for WFA: FT4, Group 4; for sBFE (Specific Basic Flow Energy): FT4, Group 1, 25 mm_1C_Split_Rep+VFR_R01; for sBFE (Specific Basic Flow Energy) / SI (Stability Index) / MPS-15 (major Principal Stress @ 15 kPa) / FF-15 (Flow function @ 15 kPa) / CBD-15 (Consolidated Bulk Density @ 15 kPa) / CPS (Compressibility) / WFA (Wall Friction Angle): reference powders; for SI (Stability Index) / FF-15 (Flow function @ 15 kPa): dimensionless; for MPS-15 (major Principal Stress @ 15 kPa): FT4, Group 2, 25 mm_Shear_15 kPa; for FF-15 (Flow function @ 15 kPa) / CBD-15 (Consolidated Bulk Density @ 15 kPa): FT4, Group 2, shear cell; for CPS (Compressibility): FT4, Group 3, 25 mm_Compressibility_1-15 kPa; for WFA (Wall Friction Angle): FT4, Group 4, 25 mm_Wall Friction_30 kPa
Experimental: A standard FT4 powder rheometer offers at least 6 powder characterization methods (per measurement cylinder diameter). Those selected for analysis are
25 mm_1C_Split_Rep+VFR_R01;
25 mm_Compressibility_1-15 kPa;
25 mm_Wall Friction_30 kPa.
Each characterization method produces several kind of response parameters (default or manually selectable). A set of complete powder characterizations (at least 22 response parameters per row) were measured for more than 350 different powders and more than 60 different compounds using a standard FT4 powder rheometer and compiled in a database. The various parameters were correlated to the respective filling behavior in order to determine a set of parameters and parameter ranges which is capable of distinguishing and predicting filling behavior of powders.
sBFE: Specific Basic Flow Energy (mJ/g): obtained from BFE (obtained from standard FT4 test platform) divided by the split mass of the sample.
SI: Stability Index, standard variable, dimensionless.
SE: Specific Energy (mJ/g), standard variable
MPS @ 15 kPa: major Principal Stress, standard variable
FF @ 15 kPa: Flow function (dimensionless), from shear cell, standard variable
CBD @ 15 kPa: Consolidated Bulk Density (g/mL), standard variable (from shear cell)
CPS: Compressibility (%), standard variable
WFA: Wall Friction Angle (degree°), standard variable.

[3] = Crystal/particle shape, size and bulk density of reference API powders
Text: NBU928 is a fumarate salt with a challenging crystallization process. The resulting particles typically have an elongated aspect ratio, crystals are lath shaped up to 400 μm long with strong agglomeration tendency. Such kind of crystal shape give a resulting powder bulk which is not directly processable in any capsule filler equipment. Therefore the API powder was subjected to a Particle Engineering treatment to selectively grow the shot side of the crystal then it was milled down through a pin mill equipment obtaining a quite regular fragmentation, leading to smaller particles with more steady aspect ratio, free of agglomeration, with an average diameter (X50) of about 25 μm.
CDZ173 is a mono-phosphate salt compound. It is characterized by needle shaped crystals with aspect ratio >10, agglomerated/fused rod-like crystals, very low bulk density (always <0.2 g/mL, very often <0.12 g/mL). It is here reported in two different variants (milled and un-milled).

COc1ncc(-c2nc3c(n2C(C)C)[C@H](c2ccc(Cl)cc2)N(c2cc(Cl)cn(C)c2=O)C3=O)c(OC)n1.O=C(O)CCC(=O)O [Batch B3]
X10 ([1]; listed as B3): 5 micrometer
X50 ([1]; listed as B3): 26 micrometer
X90 ([1]; listed as B3): 87 micrometer
SI ([2]; listed as B3): 1.11
sBFE ([2]; listed as B3): 9 mJ/g
CBD-15 ([2]; listed as B3): 0.70 g/mL
FF-15 ([2]; listed as B3): 5.3
MPS-15 ([2]; listed as B3): 29
CPS ([2]; listed as B3): 26%
WFA ([2]; listed as B3): 35 °

COc1ncc(-c2nc3c(n2C(C)C)[C@H](c2ccc(Cl)cc2)N(c2cc(Cl)cn(C)c2=O)C3=O)c(OC)n1.O=C(O)CCC(=O)O [Batch C2]
X10 ([1]; listed as C2): 6 micrometer
X50 ([1]; listed as C2): 35 micrometer
X90 ([1]; listed as C2): 83 micrometer
SI ([2]; listed as C2): 1.01
sBFE ([2]; listed as C2): 12 mJ/g
CBD-15 ([2]; listed as C2): 0.70 g/mL
FF-15 ([2]; listed as C2): 6.4
MPS-15 ([2]; listed as C2): 29
CPS ([2]; listed as C2): 25%
WFA ([2]; listed as C2): 35 °

COc1ncc(-c2nc3c(n2C(C)C)[C@H](c2ccc(Cl)cc2)N(c2cc(Cl)cn(C)c2=O)C3=O)c(OC)n1.O=C(O)CCC(=O)O [Batch C3]
X10 ([1]; listed as C3): 3 micrometer
X50 ([1]; listed as C3): 19 micrometer
X90 ([1]; listed as C3): 58 micrometer
SI ([2]; listed as C3): 1.03
sBFE ([2]; listed as C3): 8 mJ/g
CBD-15 ([2]; listed as C3): 0.62 g/mL
FF-15 ([2]; listed as C3): 3.7
MPS-15 ([2]; listed as C3): 29
CPS ([2]; listed as C3): 36%

COc1ncc(-c2nc3c(n2C(C)C)[C@H](c2ccc(Cl)cc2)N(c2cc(Cl)cn(C)c2=O)C3=O)c(OC)n1.O=C(O)CCC(=O)O [Batch A3]
X10 ([1]; listed as A3): 9 micrometer
X50 ([1]; listed as A3): 45 micrometer
X90 ([1]; listed as A3): 95 micrometer
SI ([2]; listed as A3): 1.12
sBFE ([2]; listed as A3): 20 mJ/g
CBD-15 ([2]; listed as A3): 0.69 g/mL
FF-15 ([2]; listed as A3): 9.4
MPS-15 ([2]; listed as A3): 29
CPS ([2]; listed as A3): 15%
WFA ([2]; listed as A3): 34 °

COc1ncc(-c2nc3c(n2C(C)C)[C@H](c2ccc(Cl)cc2)N(c2cc(Cl)cn(C)c2=O)C3=O)c(OC)n1.O=C(O)CCC(=O)O [Batch C1]
X10 ([1]; listed as C1): 21 micrometer
X50 ([1]; listed as C1): 69 micrometer
X90 ([1]; listed as C1): 163 micrometer
SI ([2]; listed as C1): 1.15
sBFE ([2]; listed as C1): 33 mJ/g
CBD-15 ([2]; listed as C1): 0.68 g/mL
FF-15 ([2]; listed as C1): 9.0
MPS-15 ([2]; listed as C1): 31
CPS ([2]; listed as C1): 14%
WFA ([2]; listed as C1): 34 °

COc1ncc(-c2nc3c(n2C(C)C)[C@H](c2ccc(Cl)cc2)N(c2cc(Cl)cn(C)c2=O)C3=O)c(OC)n1.O=C(O)CCC(=O)O [Batch A1]
X10 ([1]; listed as A1): 1 micrometer
X50 ([1]; listed as A1): 5 micrometer
X90 ([1]; listed as A1): 14 micrometer
SI ([2]; listed as A1): 1.07
sBFE ([2]; listed as A1): 6 mJ/g
CBD-15 ([2]; listed as A1): 0.53 g/mL
FF-15 ([2]; listed as A1): 2.5
MPS-15 ([2]; listed as A1): 32
CPS ([2]; listed as A1): 43%
WFA ([2]; listed as A1): 35 °

COc1ncc(-c2nc3c(n2C(C)C)[C@H](c2ccc(Cl)cc2)N(c2cc(Cl)cn(C)c2=O)C3=O)c(OC)n1.O=C(O)CCC(=O)O [Batch B2]
X10 ([1]; listed as B2): 4 micrometer
X50 ([1]; listed as B2): 21 micrometer
X90 ([1]; listed as B2): 71 micrometer
SI ([2]; listed as B2): 1.01
sBFE ([2]; listed as B2): 8 mJ/g
CBD-15 ([2]; listed as B2): 0.65 g/mL
FF-15 ([2]; listed as B2): 3.8
MPS-15 ([2]; listed as B2): 28
CPS ([2]; listed as B2): 38%
WFA ([2]; listed as B2): 35 °

CC1(N)CCN(c2cccnc2NC(=O)c2nc(-c3ncccc3C(F)(F)F)cnc2N)CC1 [5. LXS196, reference compound]
sBFE (Specific Basic Flow Energy) [2]: 26 mJ/g
SI (Stability Index) [2]: 1.1
MPS-15 (major Principal Stress @ 15 kPa) [2]: 27 kPa
FF-15 (Flow function @ 15 kPa) [2]: 15
CBD-15 (Consolidated Bulk Density @ 15 kPa) [2]: 0.7 g/mL
CPS (Compressibility) [2]: 11%
WFA (Wall Friction Angle) [2]: 29 °

CCC(=O)N1CC[C@H](Nc2ncnc3c2CN(c2cnc(OC)c(C(F)(F)F)c2)CC3)C1 [6. CDZ173, reference compound]
sBFE (Specific Basic Flow Energy) [2]: 29 mJ/g
SI (Stability Index) [2]: 1.5
MPS-15 (major Principal Stress @ 15 kPa) [2]: 50 kPa
FF-15 (Flow function @ 15 kPa) [2]: 1.4
CBD-15 (Consolidated Bulk Density @ 15 kPa) [2]: 0.26 g/mL
CPS (Compressibility) [2]: 43%
WFA (Wall Friction Angle) [2]: 50 °

CCC(=O)N1CC[C@H](Nc2ncnc3c2CN(c2cnc(OC)c(C(F)(F)F)c2)CC3)C1.O=P(O)(O)O [CDZ173]
bulk density ([3]; always): < 0.2 g/mL
aspect ratio of crystals ([3]; needle shaped crystals): > 10
bulk density ([3]; very often): < 0.12 g/mL

OC[C@H]1O[C@@H](O[C@H]2[C@H](O)[C@@H](O)[C@@H](O)O[C@@H]2CO)[C@H](O)[C@@H](O)[C@H]1O [4. Lactose 125M, reference compound]
sBFE (Specific Basic Flow Energy) [2]: 16 mJ/g
CPS (Compressibility) [2]: 13%
WFA (Wall Friction Angle) [2]: 27 °

CCC(=O)N1CC[C@H](Nc2ncnc3c2CN(c2cnc(OC)c(C(F)(F)F)c2)CC3)C1 [7. CDZ173, reference compound]
sBFE (Specific Basic Flow Energy) [2]: 82 mJ/g
SI (Stability Index) [2]: 1.1
MPS-15 (major Principal Stress @ 15 kPa) [2]: 9.6 kPa
FF-15 (Flow function @ 15 kPa) [2]: 5
CBD-15 (Consolidated Bulk Density @ 15 kPa) [2]: 0.2 g/mL
CPS (Compressibility) [2]: 56%
WFA (Wall Friction Angle) [2]: 37 °

CN(C)C(=O)c1cc2cnc(Nc3ccc(N4CCNCC4)cn3)nc2n1C1CCCC1 [1. LEE011, reference compound]
sBFE (Specific Basic Flow Energy) [2]: 38 mJ/g
SI (Stability Index) [2]: 0.9
MPS-15 (major Principal Stress @ 15 kPa) [2]: 42 kPa
FF-15 (Flow function @ 15 kPa) [2]: 5.8
CBD-15 (Consolidated Bulk Density @ 15 kPa) [2]: 0.6 g/mL
CPS (Compressibility) [2]: 26%
WFA (Wall Friction Angle) [2]: 40 °

COc1ncc(-c2nc3c(n2C(C)C)[C@H](c2ccc(Cl)cc2)N(c2cc(Cl)cn(C)c2=O)C3=O)c(OC)n1.O=C(O)CCC(=O)O [Batch A2]
X10 ([1]; listed as A2): 4 micrometer
X50 ([1]; listed as A2): 28 micrometer
X90 ([1]; listed as A2): 60 micrometer
SI ([2]; listed as A2): 1.11
sBFE ([2]; listed as A2): 9 mJ/g
CBD-15 ([2]; listed as A2): 0.68 g/mL
FF-15 ([2]; listed as A2): 5.5
MPS-15 ([2]; listed as A2): 29
CPS ([2]; listed as A2): 32%
WFA ([2]; listed as A2): 34 °

COc1ncc(-c2nc3c(n2C(C)C)[C@H](c2ccc(Cl)cc2)N(c2cc(Cl)cn(C)c2=O)C3=O)c(OC)n1.O=C(O)CCC(=O)O [Batch B1]
X10 ([1]; listed as B1): 3 micrometer
X50 ([1]; listed as B1): 16 micrometer
X90 ([1]; listed as B1): 50 micrometer
SI ([2]; listed as B1): 1.14
sBFE ([2]; listed as B1): 6 mJ/g
CBD-15 ([2]; listed as B1): 0.64 g/mL
FF-15 ([2]; listed as B1): 3.8
MPS-15 ([2]; listed as B1): 29
CPS ([2]; listed as B1): 31%
WFA ([2]; listed as B1): 34 °
